Holding throughout (assay type): cell-based
One test has as its target T1, M3 muscarinic receptor (Homo sapiens, UniProt P20309).
T1 construct: expressed in transfected cells; host or cells: CHO (M3-CHO)
The experiment in a line: Functional mobilization of intracellular calcium (FLIPR) in CHO cells expressing M3. The following applies: for EC50: CHO cells expressing M3, FLIPR calcium; for Emax: CHO, read-out: M3 Efficacy; for Emax / M3 Efficacy: 100% = maximum response obtained with the Carbachol control. In a few lines:
(§1)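 Recombinant CHO cells loaded with Fluo-3 AM or Calcium 3 dye in pH 7.4 buffer containing 1 mM probenecid, with 0.5% final DMSO. For agonism, compound is added directly. For inhibition, it is preincubated 15 min, or co-applied, before carbachol at EC80. FLIPR fluorescence (ex 488, em 540 nm) is recorded for 60 s.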

Another test deals with T2, M2 muscarinic receptor (Homo sapiens, UniProt P08172).
T2 construct: expressed in transfected cells; host or cells: CHO (M2-CHO)
T2 sequence (P08172 1-466): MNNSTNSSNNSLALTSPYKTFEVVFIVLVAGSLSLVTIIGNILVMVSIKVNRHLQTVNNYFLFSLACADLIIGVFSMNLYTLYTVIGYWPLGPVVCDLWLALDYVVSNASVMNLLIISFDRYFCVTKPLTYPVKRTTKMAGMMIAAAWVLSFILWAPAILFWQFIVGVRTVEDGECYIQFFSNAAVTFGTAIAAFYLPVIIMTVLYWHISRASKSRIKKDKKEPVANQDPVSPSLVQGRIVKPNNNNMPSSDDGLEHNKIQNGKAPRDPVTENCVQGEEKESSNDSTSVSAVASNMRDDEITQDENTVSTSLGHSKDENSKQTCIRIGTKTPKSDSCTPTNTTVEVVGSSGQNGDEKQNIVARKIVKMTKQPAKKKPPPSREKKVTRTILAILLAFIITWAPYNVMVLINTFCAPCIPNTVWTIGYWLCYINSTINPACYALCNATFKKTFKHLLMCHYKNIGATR
The experiment in a line: Functional mobilization of intracellular calcium (FLIPR) in CHO cells expressing M2. Particulars: for EC50: CHO cells expressing M2, FLIPR calcium; for Emax: CHO, read-out: M2 Efficacy; for Emax / M2 Efficacy: 100% = maximum response obtained with the Carbachol control. In a few lines: as §1
On the technique in general: Calcium flux is commonly read through the fluorescence of an indicator in the cells.

A further test deals with T3, M1 muscarinic receptor (Homo sapiens, UniProt P11229).
T3 construct: expressed in transfected cells; host or cells: CHO (M1-CHO)
T3 sequence (P11229 1-460): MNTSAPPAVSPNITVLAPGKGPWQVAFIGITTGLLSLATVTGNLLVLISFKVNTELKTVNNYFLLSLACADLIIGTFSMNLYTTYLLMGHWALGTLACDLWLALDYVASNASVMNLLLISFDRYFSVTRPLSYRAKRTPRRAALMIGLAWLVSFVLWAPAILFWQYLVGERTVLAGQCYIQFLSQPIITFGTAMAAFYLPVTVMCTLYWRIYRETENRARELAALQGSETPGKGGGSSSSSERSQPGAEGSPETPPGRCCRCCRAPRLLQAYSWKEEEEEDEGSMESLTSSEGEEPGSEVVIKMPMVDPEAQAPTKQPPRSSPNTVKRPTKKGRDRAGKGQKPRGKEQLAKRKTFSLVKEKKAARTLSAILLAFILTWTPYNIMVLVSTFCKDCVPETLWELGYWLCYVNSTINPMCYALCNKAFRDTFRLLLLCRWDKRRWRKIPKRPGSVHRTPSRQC
The experiment in a line: Functional mobilization of intracellular calcium (FLIPR) in CHO cells expressing M1. The following applies: for EC50: CHO cells expressing M1, FLIPR calcium; for Emax: CHO, read-out: M1 Efficacy; for Emax / M1 Efficacy: 100% = maximum response obtained with the Carbachol control. The method, boiled down:
as §1

Another test addresses T4, M4 muscarinic receptor (Homo sapiens, UniProt P08173).
T4 construct: expressed in transfected cells; host or cells: CHO (M4-CHO)
T4 sequence (P08173 1-479): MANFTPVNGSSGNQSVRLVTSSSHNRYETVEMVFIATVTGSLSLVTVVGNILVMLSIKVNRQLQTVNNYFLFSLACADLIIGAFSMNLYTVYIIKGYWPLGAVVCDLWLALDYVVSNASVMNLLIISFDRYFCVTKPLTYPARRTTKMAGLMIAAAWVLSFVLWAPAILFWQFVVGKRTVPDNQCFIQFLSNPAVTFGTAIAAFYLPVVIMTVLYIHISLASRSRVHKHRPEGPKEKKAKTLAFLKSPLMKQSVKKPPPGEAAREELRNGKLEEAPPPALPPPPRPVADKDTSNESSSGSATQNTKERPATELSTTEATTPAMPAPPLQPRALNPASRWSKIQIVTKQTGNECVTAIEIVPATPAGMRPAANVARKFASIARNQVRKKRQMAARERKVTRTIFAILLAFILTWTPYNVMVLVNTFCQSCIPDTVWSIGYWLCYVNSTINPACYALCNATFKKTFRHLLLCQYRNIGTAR
Nature of the test: Functional mobilization of intracellular calcium (FLIPR) in CHO cells expressing M4. The following applies: for EC50: CHO cells expressing M4, FLIPR calcium; for Emax: CHO, read-out: M4 Efficacy; for Emax / M4 Efficacy: 100% = maximum response obtained with the Carbachol control. In a few lines: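 Read-out: FLIPR fluorescence (ex 488, em 540 nm) over 60 s. Recombinant CHO lines are dye-loaded (Fluo-3 AM or Calcium 3) with 1 mM probenecid. For antagonist mode, compound is pre-incubated 15 min, or co-applied, then carbachol is added at 3× EC80 per subtype.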

T1 sequence (P20309 whole entry): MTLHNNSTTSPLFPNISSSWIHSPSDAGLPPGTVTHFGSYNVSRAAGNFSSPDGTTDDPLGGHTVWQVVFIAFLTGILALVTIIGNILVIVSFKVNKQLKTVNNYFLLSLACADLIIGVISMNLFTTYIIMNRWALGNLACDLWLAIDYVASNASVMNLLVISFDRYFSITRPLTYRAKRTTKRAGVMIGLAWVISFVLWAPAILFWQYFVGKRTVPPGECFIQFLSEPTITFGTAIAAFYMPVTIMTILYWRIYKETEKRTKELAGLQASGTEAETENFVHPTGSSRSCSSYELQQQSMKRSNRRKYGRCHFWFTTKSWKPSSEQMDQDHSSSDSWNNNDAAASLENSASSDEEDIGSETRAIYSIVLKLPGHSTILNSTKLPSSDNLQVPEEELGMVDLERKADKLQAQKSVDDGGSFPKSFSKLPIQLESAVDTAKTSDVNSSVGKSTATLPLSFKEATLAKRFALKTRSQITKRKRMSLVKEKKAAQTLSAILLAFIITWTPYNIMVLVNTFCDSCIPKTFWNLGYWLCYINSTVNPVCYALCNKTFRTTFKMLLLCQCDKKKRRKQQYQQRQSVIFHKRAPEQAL

Turning to `CCOCC(=O)N[C@@H]1CCC2(CCN(CCC(C)(C)C)CC2)c2cc(F)ccc21` [compound 63], the EC50 was over 5000 nM on M3 muscarinic receptor, under 2000 nM on M2 muscarinic receptor, under 2000 nM at M1 muscarinic receptor and under 2000 nM at M4 muscarinic receptor. In addition, the Emax at M3 muscarinic receptor is under 25%; at M2 muscarinic receptor, under 25%; on M1 muscarinic receptor, 25 to 100%; at M4 muscarinic receptor, 25 to 100%.

Take `CC(=O)N[C@@H]1CCC2(CCN(CCC(C)(C)C)CC2)c2ccccc21` [compound 64]: the EC50 at M3 muscarinic receptor is over 5000 nM; at M2 muscarinic receptor it was over 5000 nM; on M1 muscarinic receptor, 2000 to 5000 nM; at M4 muscarinic receptor, under 2000 nM. Moreover, the Emax on M3 muscarinic receptor is under 25%; at M2 muscarinic receptor, under 25%; at M1 muscarinic receptor, under 25%; on M4 muscarinic receptor, 25 to 100%.

On to `CC(C)(C)CCN1CCC2(CC[C@@H](NC(=O)Cc3cccnc3)c3ccc(F)cc32)CC1` [compound 65], for which the EC50 at M3 muscarinic receptor is over 5000 nM; on M2 muscarinic receptor it was 2000 to 5000 nM; at M1 muscarinic receptor, under 2000 nM; on M4 muscarinic receptor, under 2000 nM. The Emax at M3 muscarinic receptor was under 25%; at M2 muscarinic receptor, under 25%; on M1 muscarinic receptor, 25 to 100%; at M4 muscarinic receptor it was 25 to 100%.

As for `CC(=O)N[C@H]1CCC2(CCN(CC(C)(C)C)CC2)c2ccccc21` [compound 66], the EC50 was over 5000 nM on M3 muscarinic receptor, over 5000 nM at M2 muscarinic receptor, under 2000 nM at M1 muscarinic receptor and under 2000 nM at M4 muscarinic receptor. Moreover, the Emax at M3 muscarinic receptor was under 25%; on M2 muscarinic receptor, 25 to 100%; at M1 muscarinic receptor, 25 to 100%; at M4 muscarinic receptor, 25 to 100%.

As for `CC(C)(C)CCN1CCC2(CC[C@H](NC(=O)C3CC(=O)N3)c3ccc(F)cc32)CC1` (some centres unmarked) [compound 67], the concentration giving a half-maximal response (EC50) on M3 muscarinic receptor is over 5000 nM; on M2 muscarinic receptor, under 2000 nM; at M1 muscarinic receptor, under 2000 nM; at M4 muscarinic receptor, under 2000 nM. Besides, the Emax at M3 muscarinic receptor was under 25%; on M2 muscarinic receptor, 25 to 100%; on M1 muscarinic receptor it was 25 to 100%; at M4 muscarinic receptor, 25 to 100%.

`CC(=O)N[C@H]1CCC2(CCN(CCC(C)CCC=C(C)C)CC2)c2ccccc21` (some centres unmarked) [compound 68]: the EC50 on M3 muscarinic receptor was over 5000 nM; at M2 muscarinic receptor, under 2000 nM; at M1 muscarinic receptor, under 2000 nM; on M4 muscarinic receptor, under 2000 nM. Further, the Emax was under 25% on M3 muscarinic receptor, 25 to 100% at M2 muscarinic receptor, over 100% at M1 muscarinic receptor and 25 to 100% at M4 muscarinic receptor.

As to `CCn1cc(C(=O)N[C@H]2CCC3(CCN(CCC(C)(C)C)CC3)c3ccccc32)cn1` [compound 69], on M3 muscarinic receptor, the “M3 Efficacy” value is “+ (efficacy was calculated to be less than 25%)” and the EC50 is over 5000 nM. Further, on M2 muscarinic receptor, the “M2 Efficacy” value was “+ (efficacy was calculated to be less than 25%)” and the EC50 was over 5000 nM. At M1 muscarinic receptor, the “M1 Efficacy” value is “+ (efficacy was calculated to be less than 25%)” and the EC50 is over 5000 nM. Further, at M4 muscarinic receptor, the “M4 Efficacy” value was “++ (efficacy was calculated to be from 100% to 25%)” and the EC50 was under 2000 nM.

Consider `CCOCC(=O)N[C@H]1CCC2(CCN(CCC(C)(C)C)CC2)c2ccccc21` [compound 70], for which the EC50 is over 5000 nM on M3 muscarinic receptor, under 2000 nM on M2 muscarinic receptor, under 2000 nM at M1 muscarinic receptor and under 2000 nM on M4 muscarinic receptor. Besides, the Emax at M3 muscarinic receptor is under 25%; on M2 muscarinic receptor, under 25%; on M1 muscarinic receptor, 25 to 100%; on M4 muscarinic receptor it was 25 to 100%.

`CC(C)(C)CCN1CCC2(CC[C@H](NC(=O)CN3CCCCCC3=O)c3ccccc32)CC1` [compound 71]: the EC50 on M3 muscarinic receptor was over 5000 nM; at M2 muscarinic receptor, under 2000 nM; on M1 muscarinic receptor, under 2000 nM; on M4 muscarinic receptor it was under 2000 nM. Also, the Emax on M3 muscarinic receptor is under 25%; on M2 muscarinic receptor, 25 to 100%; at M1 muscarinic receptor, 25 to 100%; on M4 muscarinic receptor, 25 to 100%.

As to `CC(=O)N1CCCC[C@H]1C(=O)N[C@@H]1CCC2(CCN(CCC(C)(C)C)CC2)c2cc(F)ccc21` [compound 72], the EC50 on M3 muscarinic receptor is over 5000 nM; at M2 muscarinic receptor, 2000 to 5000 nM; on M1 muscarinic receptor it was 2000 to 5000 nM; at M4 muscarinic receptor, under 2000 nM. For the same molecule, the Emax at M3 muscarinic receptor was under 25%; on M2 muscarinic receptor, under 25%; on M1 muscarinic receptor, 25 to 100%; on M4 muscarinic receptor it was 25 to 100%.

For `CCC(CC)CN1CCC2(CC[C@H](NC(C)=O)c3ccccc32)CC1` [compound 73], the EC50 on M3 muscarinic receptor is over 5000 nM; at M2 muscarinic receptor, over 5000 nM; on M1 muscarinic receptor, under 2000 nM; at M4 muscarinic receptor, under 2000 nM. Further, the Emax was under 25% on M3 muscarinic receptor, under 25% on M2 muscarinic receptor, 25 to 100% on M1 muscarinic receptor and 25 to 100% on M4 muscarinic receptor.

Take `CC(C)(C)CCN1CCC2(CC[C@H](NC(=O)c3cccnc3)c3ccccc32)CC1` [compound 74]: on M3 muscarinic receptor, the “M3 Efficacy” value is “+ (efficacy was calculated to be less than 25%)” and the EC50 is over 5000 nM. Besides, on M2 muscarinic receptor, the “M2 Efficacy” value is “++ (efficacy was calculated to be from 100% to 25%)” and the EC50 is under 2000 nM. At M1 muscarinic receptor, the “M1 Efficacy” value is “++ (efficacy was calculated to be from 100% to 25%)” and the EC50 was under 2000 nM. Besides, at M4 muscarinic receptor, the “M4 Efficacy” value is reported as “++ (efficacy was calculated to be from 100% to 25%)” and the EC50 was under 2000 nM.

Turning to `CC(C)(C)CCN1CCC2(CC[C@@H](NC(=O)[C@@H]3CCC(=O)N3)c3ccc(F)cc32)CC1` [compound 75], the EC50 on M3 muscarinic receptor was over 5000 nM; at M2 muscarinic receptor, 2000 to 5000 nM; at M1 muscarinic receptor, 2000 to 5000 nM; on M4 muscarinic receptor, under 2000 nM. The Emax at M3 muscarinic receptor was under 25%; on M2 muscarinic receptor, under 25%; at M1 muscarinic receptor, 25 to 100%; on M4 muscarinic receptor it was 25 to 100%.

For `CC(C)(C)CCN1CCC2(CC[C@@H](NC(=O)CN3CCCC3=O)c3ccc(F)cc32)CC1` [compound 76], the EC50 on M3 muscarinic receptor was over 5000 nM; at M2 muscarinic receptor, under 2000 nM; on M1 muscarinic receptor it was under 2000 nM; at M4 muscarinic receptor, under 2000 nM. For the same molecule, the Emax at M3 muscarinic receptor is under 25%; on M2 muscarinic receptor it was 25 to 100%; at M1 muscarinic receptor, 25 to 100%; at M4 muscarinic receptor, 25 to 100%.

For `CCN(C(C)=O)[C@H]1CCC2(CCN(CCC(C)(C)C)CC2)c2cc(F)ccc21` [compound 77], the EC50 was over 5000 nM on M3 muscarinic receptor, 2000 to 5000 nM on M2 muscarinic receptor, under 2000 nM on M1 muscarinic receptor and under 2000 nM at M4 muscarinic receptor. In addition, the Emax is under 25% at M3 muscarinic receptor, under 25% at M2 muscarinic receptor, 25 to 100% at M1 muscarinic receptor and 25 to 100% on M4 muscarinic receptor.

As for `C[C@H](C(=O)N[C@@H]1CCC2(CCN(CCC(C)(C)C)CC2)c2cc(F)ccc21)N1CCCC1=O` [compound 78], the EC50 at M3 muscarinic receptor is over 5000 nM; on M2 muscarinic receptor, under 2000 nM; on M1 muscarinic receptor, under 2000 nM; at M4 muscarinic receptor, under 2000 nM. In addition, the Emax was under 25% at M3 muscarinic receptor, 25 to 100% on M2 muscarinic receptor, 25 to 100% at M1 muscarinic receptor and 25 to 100% at M4 muscarinic receptor.

The EC50 is the concentration needed to bring the measured effect to its halfway point.
